Reference: ChEMBL document CHEMBL1144080, “Antihyperglycemic sesquiterpenes from Psacalium decompositum” (1999)

Experiments:
Type in all cases: functional
Mus musculus [1] = assay: Antihyperglycemic activity in C57BL-6J ob/ob mouse type 2 diabetic model assessed as changes in plasma glucose level at 1.09 mmol/kg, po administered as single dose for 24 hrs
Mus musculus [2] = assay: Antihyperglycemic activity in C57BL-6J ob/ob mouse type 2 diabetic model assessed as changes in plasma glucose level at 1.09 mmol/kg, po administered as single dose for 3 hrs
Mus musculus [3] = assay: Antihyperglycemic activity in C57BL-6J ob/ob mouse type 2 diabetic model assessed as body weight per mouse at 1000 mg/kg, po administered as single dose for 24 hrs
Mus musculus [4] = assay: Antihyperglycemic activity in C57BL-6J ob/ob mouse type 2 diabetic model assessed as changes in plasma glucose level at 1000 mg/kg, po administered as single dose for 24 hrs
Mus musculus [5] = assay: Antihyperglycemic activity in C57BL-6J ob/ob mouse type 2 diabetic model assessed as changes in plasma glucose level at 1000 mg/kg, po administered as single dose for 3 hrs
Mus musculus [6] = assay: Antihyperglycemic activity in C57BL-6J ob/ob mouse type 2 diabetic model assessed as food intake per mouse at 1000 mg/kg, po administered as single dose
Mus musculus [7] = assay: Antihyperglycemic activity in C57BL-6J ob/ob mouse type 2 diabetic model assessed as food intake per mouse at 1.09 mmol/kg, po administered as single dose
Mus musculus [8] = assay: Antihyperglycemic activity in C57BL-6J ob/ob mouse type 2 diabetic model assessed as body weight per mouse at 1.09 mmol/kg, po administered as single dose for 24 hrs
Mus musculus [9] = assay: Antihyperglycemic activity in C57BL-6J ob/ob mouse type 2 diabetic model assessed as food intake per mouse at 1.5 mmol/kg, po administered as single dose
Mus musculus [10] = assay: Antihyperglycemic activity in C57BL-6J ob/ob mouse type 2 diabetic model assessed as body weight per mouse at 1.5 mmol/kg, po administered as single dose for 24 hrs
Mus musculus [11] = assay: Antihyperglycemic activity in C57BL-6J ob/ob mouse type 2 diabetic model assessed as changes in plasma glucose level at 1.5 mmol/kg, po administered as single dose for 3 hrs
Mus musculus [12] = assay: Antihyperglycemic activity in C57BL-6J ob/ob mouse type 2 diabetic model assessed as changes in plasma glucose level at 1.5 mmol/kg, po administered as single dose for 24 hrs

SMILES	Activity (Mus musculus [1]) [mg/dL]	Activity (Mus musculus [2]) [mg/dL]	Activity (Mus musculus [3]) [g]	Activity (Mus musculus [4]) [mg/dL]	Activity (Mus musculus [5]) [mg/dL]	Activity (Mus musculus [6]) [g]	Activity (Mus musculus [7]) [g]	Activity (Mus musculus [8]) [g]	Activity (Mus musculus [9]) [g]	Activity (Mus musculus [10]) [g]	Activity (Mus musculus [11]) [mg/dL]	Activity (Mus musculus [12]) [mg/dL]
Cc1coc2c(O)c3c(c(C)c12)[C@@H](C)CCC3 [CACALOL]	48.3	-124	45	-13.4	-105.1	4.6	4.1	43.5	–	–	–	–
Cc1coc2c1[C@](C)(O)C1=C(CCC[C@@H]1C)C2=O [CACALONE]	29.5	-3	45	-13.4	-105.1	4.6	4.8	41.4	–	–	–	–
Cc1coc2c1[C@@](C)(O)C1=C(CCC[C@@H]1C)C2=O [EPICACALONE]	30.9	-42.4	45	-13.4	-105.1	4.6	4	43.3	–	–	–	–
CN(C)C(=N)NC(=N)N [METFORMIN]	–	–	–	–	–	–	–	–	4.5	43.2	-151.8	76.1
